Laboratory results from PubChem BioAssay (NCI).
Several values for one entry are separate records, joined by “and”; a condition that tells them apart may be missing. Equal values may be shown once.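 Exposure lasted 48 hours, with cells grown in 96-well plates and compounds tested at five concentrations. TGI marks complete inhibition of growth.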 Starred links: 1 amine or outer side, 2 acyl side, 3 side chain; linkers in the order of their positions; H or OH if unused. Positions of bridges follow the written chain, without caps; N, C: chain ends. Non-standard residues stand in square brackets, D forms with d. Residues, ends and D or L forms follow the SMILES beside them. Chains are numbered I, II in the order given. Actinocin(1to9) = Cc1c2oc3c(C)ccc(C(=O)[*:2])c3nc-2c(C(=O)[*:1])c(N)c1=O; NMeV = CN[CH](C(=O)O)C(C)C; Sar = CNCC(=O)O

How the values were obtained:
Assay in all cases: growth of human tumour cells (NCI), 48 h
[1] = test system: MALME-3M melanoma
[2] = test system: HOP-62 NSCLC
[3] = test system: DU-145 prostate
[4] = test system: SNB-75 CNS
[5] = test system: UO-31 renal
[6] = test system: MDA-N
[7] = test system: UACC-62 melanoma
[8] = test system: RPMI-8226 leukemia
[9] = test system: NCI-H522 lung
[10] = test system: OVCAR-5 ovarian
[11] = test system: SR leukemia
[12] = test system: SW-620 colon
[13] = test system: A549 NSCLC
[14] = test system: OVCAR-4 ovarian
[15] = test system: UACC-257 melanoma

Structure (SMILES) | TGI [1] [µM] | TGI [2] [µM] | TGI [3] [µM] | TGI [4] [µM] | TGI [5] | TGI [6] [µM] | TGI [7] [µM] | TGI [8] [µM] | TGI [9] [µM] | TGI [10] | TGI [11] [µM] | TGI [12] [µM] | TGI [13] [µM] | TGI [14] [µM] | TGI [15] [µM]
CC(=O)OC1CC[C@@]2(C)C(=CC[C@@H]3[C@@H]2CC[C@]2(C)Nc4nn(S(C)(=O)=O)cc4C[C@@H]32)C1 (some centres not stated) | 78.6 | > 100 | > 100 | > 100 | > 100 µM | 74.5 | 50.2 | > 100 | > 100 | > 100 µM | > 100 | – | – | – | –
O=C(O[C@@H](/C=C/c1ccccc1)P1(=O)N(Cc2ccccc2)[C@H]2CCCC[C@@H]2N1Cc1ccccc1)c1ccccc1 | 31.6 | 10.8 | > 100 | > 100 | 11.7 µM | > 100 | 7.47 | 7.31 | > 100 | > 100 µM | 13.8 | > 100 | > 100 | > 100 | 9.43
CC(ON(C(c1ccccc1)C(C)C)C(C)(C)C)c1ccccc1 (configuration not stated) | 71.6 | 38.9 | 32.8 | 42.9 | 43.3 µM | 81.3 | 32.2 | 73.7 | 44.4 | 29.8 µM | 67.6 | 31.6 | 84.9 | > 100 | 47.1
CCC(C)C1NC(=O)C(NC(=O)c2c3nc4c(C(=O)NC5C(=O)NC(C(C)CC)C(=O)N6CCCC6C(=O)N(C)CC(=O)N(C)C(C(C)C)C(=O)OC5C)ccc(C)c4oc-3c(C)c(=O)c2N)C(C)OC(=O)C(C(C)C)N(C)C(=O)CN(C)C(=O)C2CCCN2C1=O (configuration not stated) (I: TIP[Sar][NMeV] / II: TIP[Sar][NMeV]; ester I:1-I:C, II:1-II:C; linker I:N-II:N via Actinocin(1to9); configuration not given here) | 0.0202 | – | – | 0.0329 | 0.143 µM and 0.316 µM | – | 0.0105 | 0.0322 | 0.00176 | 0.0273 µM and 0.0172 µM | 0.00257 | 0.0776 | 10.9 | 0.273 | 0.00726
COc1cc2oc(=O)ccc2cc1C(=O)CC(C)C | – | > 100 | > 100 | > 100 | > 100 µM | > 100 | > 100 | > 100 | 56.4 | > 100 µM | > 100 | > 100 | > 100 | > 100 | > 100
N#CC12Cc3cc4c(cc3-c3cccc(c31)CCN2C(=O)c1ccccc1)OCO4 (configuration not stated) | > 100 | > 100 | – | 62.8 | > 100 µM | – | > 100 | > 100 | – | > 100 µM | > 100 | > 100 | > 100 | – | > 100
O=c1c2cc(I)ccc2nc(SCc2nncs2)n1Cc1ccccc1 | – | > 100 | > 100 | 74.9 | 2.6 µM | > 100 | > 100 | > 100 | 61 | > 100 µM | > 100 | > 100 | > 100 | > 100 | > 100
Cc1coc2c1C[C@@]1(C)[C@H](CCC[C@@H]1C)[C@H]2O | 44.7 | 75.1 | 56.3 | – | – | > 100 | > 100 | 62.3 | 90.5 | > 100 µM | 64.8 | > 100 | – | 68.4 | 88.3
CC(O)(Cc1ccccc1C#N)Cc1ccccc1C#N | > 100 | > 100 | > 100 | 98.9 | – | > 100 | > 100 | – | > 100 | > 100 µM | > 100 | > 100 | > 100 | > 100 | > 100
Cc1cc(C)n(CC(Cn2nc(C)cc2C)=C(/C(Cl)=C(/Cl)Nc2ccc([N+](=O)[O-])cc2)[N+](=O)[O-])n1 | 13.4 | 22.2 | 14 | 14.3 | 6.76 µM | 15.3 | 15.4 | 5.12 | 5.01 | 33.2 µM | 8.49 | 17.7 | 13.3 | 3.4 | 12.3
Nc1c(C(=O)O)nnc2cc(Cl)c(Cl)cc12 | > 100 | > 100 | > 100 | > 100 | > 100 µM | > 100 | > 100 | > 100 | > 100 | > 100 µM | > 100 | > 100 | > 100 | > 100 | > 100
Cn1cnc([N+](=O)[O-])c1Sc1nc(N)nc2c1ncn2C1OC(CO)C(O)C1O (configuration not stated) | > 100 | > 100 | 66.4 | > 84.9 | 37.4 µM | > 100 | 22.7 | > 95.5 | 33.5 | > 100 µM | > 35.6 | > 100 | > 91 | > 100 | > 100
CC(C)(C)OC(=O)NC(CCCCNC(=O)OCc1ccccc1)C(=O)NCCNc1ccc(NCCNC(=O)C(CCCCNC(=O)OCc2ccccc2)NC(=O)OC(C)(C)C)c2c1C(=O)c1ccccc1C2=O (configuration not stated) | > 100 | > 74.3 | > 100 | 70.4 | > 100 µM | > 100 | > 100 | > 27.4 | 93.3 | > 100 µM | > 100 | > 100 | > 100 | > 100 | > 100
CC(C)(C)OC(=O)n1c2ccccc2c2c(=O)nc(N3CCCCC3)sc21 | > 100 | > 100 | > 100 | > 100 | 44.9 µM | > 100 | > 100 | > 100 | > 100 | > 100 µM | > 100 | > 100 | > 100 | > 100 | > 100
CN(C)c1ccc(C=Nc2ccc(Oc3ccc(Cl)cc3)c(Cl)c2)cc1 | 36.8 | 51.8 | 79 | 35.6 | 22.9 µM | 52.8 | 36.1 | 72.3 | 31.4 | > 100 µM | 32.9 | > 100 | 53.4 | 66.4 | 44.6
